# Marks after values point to notes of the source that are not given here.
# Columns and labels:
# [1] = tested on: ADAMTS1, -5, -8, versican, aggrecan, HAS-1, HAS-2, TIMP-3 and MT4-MMP mRNA; experiment: Myocardial mRNA expression of other ADAMTS, proteoglycans and modulators (qRT-PCR) in aortic banding rats; type: in vivo, rat; conditions: AB-rats, PPS-treatment vs vehicle
# Method: Three days after AB, rats were stratified by the gradient over the stenosis to ensure similar degree of cardiac stress. Two and two stratified rats were randomized to either 6 mg/kg of the sulfated polysaccharide sodium pentosan polysulfate (PPS) (Interfarm AS, Norway) or vehicle (0.9% NaCl) injected subcutaneously every third day. […] Six weeks after AB or sham operation, the rats were examined by echocardiography and postmortem analysis, performed by experienced investigators (IS, JMA) blinded to treatment group.
# In addition, mRNA levels of proteins known to modulate ADAMTS activity or versican function were measured; tissue inhibitor of metalloprotease (TIMP)-3, hyaluronic acid (HA) synthase 1 and 2, and membrane-type (MT)4-MMP, while mRNA levels of ADAMTS1, -4, and versican were quantified in NFB and NCM.
# Total RNA was isolated from the left ventricle in AB rats, neonatal rat cardiomyocytes and fibroblasts (RNeasy mini kit, Qiagen, Valencia, Calif.). […] The results were detected on an ABI PRISM 7900 Sequence Detection System (Applied Biosystems, CA).
# [2] = tested on: myocardial infarction rats; experiment: Myocardial infarction rat model: echocardiography, MRI and organ weights after PPS-treatment; type: in vivo; conditions: for EDV (end-diastolic volume, MRI) / Heart weight / LAD (left atrial diameter) / LVDd (left ventricular diameter at diastole) / Lung weight / Max. syst velocity (maximum systolic velocity) / RV weight / VTI (velocity time integral): median (interquartile range)
# Text: Male Wistar rats weighing 160-170 grams (approximately 7 weeks old) (Taconic, Skensved Denmark) underwent MI (myocardial infarction) by left coronary artery ligation as described previously (Sjaastad I, et al. J Appl Physiol 2000 October; 89(4):1445-54). In all surgical procedures performed, a mixture of 67% N2O, 28% O2, and 4% isoflurane in an anesthesia chamber was used for preoperative sedation. To maintain anesthesia preoperatively, a mixture of 69% N2O, 29% O2, and 2% isoflurane was given by the endotracheal tube and the animals were ventilated on a respirator (Zoovent, Triumph Technical Services, Milton Keynes, UK). Buprenorphine (0.2 mg/kg) was given as postoperative analgesia after MI. Rats were housed in cages (one or two rats in each cage) with Bee Kay bedding (Scanbur B K, Nittedal, Norway) in 55% humidity on a 12 h light/dark cycle, with food pellets (RM1, 801151, Scanbur B K) and water ad libitum.
# (§1) At day 0 to 3 (median 2) after surgery, infarct size was quantified by echocardiography using the Vevo2100 system (Visualsonics Inc, Canada) and magnetic resonance imaging (MRi) using a 9.4 T/210 mm/ASR horizontal bore magnet (Agilent Technologies, Inc., USA). Initially, echocardiography was performed to select moderate to large infarcts ranging approximately 40 to 50%. Thereafter, infarct sizes were exactly measured by late-enhancement gadolinium MRi analyses (Bohl S., et al. American Journal of Physiology, 2009; 296 (4): H1200-H1208) and stratified into small infarcts (stratum 1: <43%, stratum 2: 43-48%), and large infarcts (stratum 3: 48-53%, stratum 4: >53%). The rats in each MI stratum and sham group were randomized to receive intervention or control treatment. The intervention group was treated with 6 mg/kg of sodium PPS (Interfarm AS, Norway), while the control group received vehicle (0.9% NaCl), both injected subcutaneously every third day starting from post-operative day 8-10.
# After receiving PPS- or vehicle-treatment for 51 to 56 days (median 55 days), rats were sacrificed after examination by experienced investigators blinded to treatment group. In vivo heart function was evaluated as previously described with echocardiography (Sjaastad I, et al., J Appl Physiol 2000 October; 89(4):1445-54) and MRi (Espe E., Journal of Cardiovascular Magnetic Resonance 2013; 15(1):82). Thereafter, the heart and lung was excised under deep anesthesia, washed in saline and blotted dry to remove blood in the cardiac chambers. The heart chambers were separated by rapid dissection, before left ventricles were divided into infarcted and viable tissue. Lungs and cardiac tissue were snap-frozen in liquid nitrogen and stored at −70° C. until RNA and protein analyses.
# ADAMTS5 mRNA = ADAMTS5 mRNA level (qRT-PCR) in MI rats; type: in vivo, rat; conditions: PPS-treatment
# Method: as §1
# The mRNA levels of the ADAMTS versicanases ADAMTS1, -4, -5, -8, and -20 (Shiomi T, et al. Pathology International 2010; 60(7):477-96), versican, aggrecan, syndecan-4, tissue inhibitor metalloprotease (TIMP)-3, and membrane-type (MT)4-MMP, were quantified in rat left ventricle by qRT-PCR, as previously described in Example 1.
# [3] = tested on: acute ischemia/reperfusion model; conditions: administered during reperfusion; cited from earlier work
# [4] = MI strata 1 + 2 (small infarcts) PPS, 6 mg/kg s.c. every third day from day 8-10
# [5] = MI strata 3 + 4 (large infarcts) PPS, 6 mg/kg s.c. every third day from day 8-10
# [6] = Sham PPS, 6 mg/kg s.c. every third day
# [7] = rats with large infarcts, PPS vs vehicle
substance,measurement,setting,value
pentosan polysulfate [PPS],"mRNA levels of ADAMTS1, -5, -8, versican, aggrecan, HAS-1, HAS-2, TIMP-3 and MT4-MMP",[1],not affected
same,side effects including hemorrhage,"[2]; MI rats, 6 mg/kg s.c. every third day, observed daily",no side effects
same,"EDV (end-diastolic volume, MRI)",[2]; [4],614 (524-707)
same,Heart weight,[2]; [4],1610 (1450-1760) mg
same,LAD (left atrial diameter),[2]; [4],5.32 (4.25-6.50) mm
same,LVDd (left ventricular diameter at diastole),[2]; [4],9.91 (9.50-10.29) mm
same,Lung weight,[2]; [4],1930 (1450-3420) mg
same,Max. syst velocity (maximum systolic velocity),[2]; [4],39.7 (28.3-57.5)
same,RV weight,[2]; [4],300 (180-345) mg
same,VTI (velocity time integral),[2]; [4],57.9 (50.8-69.6) mm
same,"EDV (end-diastolic volume, MRI)",[2]; [5],644 (552-709)
same,Heart weight,[2]; [5],1595 (1475-1710) mg
same,LAD (left atrial diameter),[2]; [5],6.88 (5.51-7.31) mm
same,LVDd (left ventricular diameter at diastole),[2]; [5],10.25 (9.51-10.75) mm
same,Lung weight,[2]; [5],2770 (1990-3385) mg
same,Max. syst velocity (maximum systolic velocity),[2]; [5],41.7 (31.2-52.0)*
same,RV weight,[2]; [5],395 (355-523) mg
same,VTI (velocity time integral),[2]; [5],69.8 (51.1-75.9)* mm
same,"EDV (end-diastolic volume, MRI)",[2]; [6],293 (256-346)
same,Heart weight,[2]; [6],1005 (980-1248) mg
same,LAD (left atrial diameter),[2]; [6],3.67 (3.45-3.73) mm
same,LVDd (left ventricular diameter at diastole),[2]; [6],6.91 (6.60-7.88) mm
same,Lung weight,[2]; [6],1255 (1158-1280) mg
same,Max. syst velocity (maximum systolic velocity),[2]; [6],64.0 (46.6-67.2)
same,RV weight,[2]; [6],168 (160-208) mg
same,VTI (velocity time integral),[2]; [6],58.5 (53.9-65.5) mm
same,reduction in heart weight,"[2]; rats with large infarcts, PPS vs corresponding vehicle-treated rats",~25%
same,maximum systolic velocity after PPS-treatment,[2]; [7],improved
same,reduction in left atrial diameter,[2]; [7],10%
same,reduction in lung weight,[2]; [7],1/3
same,velocity time integral after PPS-treatment,[2]; [7],improved
same,ADAMTS5 mRNA levels,ADAMTS5 mRNA,decreased
same,infarction size,[3],reduce infarction size
